Measurements reported in patent publication US11407768B2, “AMPK activators” (Kallyope, Inc., priority 2020, dated 2022).

Molecular target: Recombinant AMPK α1/β1/γ1 complex (Homo sapiens (Human), UniProt Q13131+Q9Y478)
Test: In vitro pAMPK1 kinase activation assay (ADP-Glo, SAMS peptide)
Assay type: biochemical
Conditions: AMPK α1/β1/γ1 pre-activated with CAMKK2; 12-point curve; 15 min compound incubation
Procedure: Compound effect on AMPK enzyme activation was determined in a cell-free format with a 12-point concentration curve. The ADP-Glo detection system was used to determine phosphorylation of a SAMS peptide substrate. Recombinant AMPK α1/β1/γ1 complex was pre-activated by phosphorylation with CAMKK2 followed by incubated with compound for 15 minutes prior to the SAMS phosphorylation reaction. Activity curves and EC50 values were fitted by interpolation to an ATP:ADP standard curve as indicated by the ADP-Glo manufacturer using Prism software.

Chain of Recombinant AMPK α1/β1/γ1 complex (Q13131 whole entry): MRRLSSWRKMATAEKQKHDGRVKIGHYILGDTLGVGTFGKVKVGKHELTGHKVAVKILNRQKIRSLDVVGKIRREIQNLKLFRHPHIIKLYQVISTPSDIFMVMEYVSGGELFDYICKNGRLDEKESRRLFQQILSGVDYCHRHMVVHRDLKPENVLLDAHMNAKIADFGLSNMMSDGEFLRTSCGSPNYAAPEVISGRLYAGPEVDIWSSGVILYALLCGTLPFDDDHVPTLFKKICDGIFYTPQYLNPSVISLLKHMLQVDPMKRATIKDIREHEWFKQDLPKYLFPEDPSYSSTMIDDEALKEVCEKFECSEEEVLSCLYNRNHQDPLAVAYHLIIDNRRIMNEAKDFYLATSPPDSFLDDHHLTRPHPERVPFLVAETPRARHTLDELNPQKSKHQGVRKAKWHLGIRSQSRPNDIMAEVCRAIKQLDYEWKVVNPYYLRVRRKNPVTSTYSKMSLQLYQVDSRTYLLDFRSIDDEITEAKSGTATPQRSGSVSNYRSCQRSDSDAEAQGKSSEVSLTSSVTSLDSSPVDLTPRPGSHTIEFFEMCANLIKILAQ
Chain of Recombinant AMPK α1/β1/γ1 complex (Q9Y478 whole entry): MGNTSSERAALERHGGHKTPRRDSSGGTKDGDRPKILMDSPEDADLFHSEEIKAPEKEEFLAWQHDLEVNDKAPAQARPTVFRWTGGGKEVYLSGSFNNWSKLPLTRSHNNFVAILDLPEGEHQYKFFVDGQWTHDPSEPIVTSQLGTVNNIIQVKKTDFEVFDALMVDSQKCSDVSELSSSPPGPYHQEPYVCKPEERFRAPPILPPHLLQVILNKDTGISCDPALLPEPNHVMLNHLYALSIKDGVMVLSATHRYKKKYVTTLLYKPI
Chain of Recombinant AMPK α1/β1/γ1 complex (P54619 whole entry partner): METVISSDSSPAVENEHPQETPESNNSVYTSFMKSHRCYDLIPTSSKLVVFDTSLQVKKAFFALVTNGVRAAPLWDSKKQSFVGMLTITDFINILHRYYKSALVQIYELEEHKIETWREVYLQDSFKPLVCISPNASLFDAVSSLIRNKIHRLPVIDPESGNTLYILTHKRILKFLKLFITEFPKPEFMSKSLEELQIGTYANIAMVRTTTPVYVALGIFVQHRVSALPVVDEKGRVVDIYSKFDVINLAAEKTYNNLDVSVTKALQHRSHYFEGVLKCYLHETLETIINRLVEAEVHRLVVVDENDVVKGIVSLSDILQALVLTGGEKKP

Row | SMILES | EC50 [nM]
1 | OCC(CO)(CO)NCc1ccc(-c2ccc(-c3nc4nc(O[C@@H]5CO[C@H]6[C@@H]5OC[C@H]6O)[nH]c4cc3Cl)cc2)cc1 [Compound 53, 2-(((4′-(6-chloro-2-(((3R,3aR,6R,6aR)-6-hydroxyhexahydrofuro[3,2-b]furan-3-yl)oxy)-1H-imidazo[4,5-b]pyridin-5-yl)-[1,1′-biphenyl]-4-yl)methyl)amino)-2-(hydroxymethyl)propane-1,3-diol] | 0.23
2 | CN(CCS(=O)(=O)O)C(=O)c1ccc(-c2ccc(-c3nc4nc(O[C@@H]5CO[C@H]6[C@@H]5OC[C@H]6O)[nH]c4cc3Cl)cc2)cc1 [Compound 8, 2-(4′-(6-chloro-2-(((3R,3aR,6R,6aR)-6-hydroxyhexahydrofuro[3,2-b]furan-3-yl)oxy)-1H-imidazo[4,5-b]pyridin-5-yl)-N-methyl-[1,1′-biphenyl]4-carboxamido)ethane-1-sulfonic acid] | 1.78
3 | O=S(=O)(NC[C@H](O)[C@@H](O)[C@H](O)[C@H](O)CO)c1ccc(-c2ccc(-c3cc4nc(O[C@@H]5CO[C@H]6[C@@H]5OC[C@H]6O)[nH]c4cc3Cl)cc2)cc1 [Compound 71] | 0.63
4 | CC(NC[C@H](O)[C@@H](O)[C@H](O)[C@H](O)CO)c1ccc(-c2ccc(-c3nc4nc(O[C@@H]5CO[C@H]6[C@@H]5OC[C@H]6O)[nH]c4cc3Cl)cc2)cc1 (some centres unmarked) [Compound 73] | 1.33
5 | O=C(NC[C@H](O)[C@@H](O)[C@H](O)[C@H](O)CO)c1ccc(-c2ccc(-c3cc4nc(O[C@@H]5CO[C@H]6[C@@H]5OC[C@H]6O)[nH]c4cc3Cl)cc2)cc1 [Compound 30, 4′-(6-chloro-2-(((3R,3aR,6R,6aR)-6-hydroxyhexahydrofuro[3,2-b]furan-3-yl)oxy)-1H-benzo[d]imidazol-5-yl)-N-((2S,3R,4R,5R)-2,3,4,5,6-pentahydroxyhexyl)-[1,1′-biphenyl]-4-carboxamide] | 0.65
6 | OCC1(CO)CCN(Cc2ccc(-c3ccc(-c4nc5nc(O[C@@H]6CO[C@H]7[C@@H]6OC[C@H]7O)[nH]c5cc4Cl)cc3)cc2)CC1 [Compound 54, (1((4′-(6-chloro-2-(((3R,3aR,6R,6aR)-6-hydroxyhexahydrofuro[3,2-b]furan-3-yl)oxy)-1H-imidazo[4,5-b]pyridin-5-yl)-[1,1′-biphenyl]-4-yl)methyl)piperidine-4,4-diyl)dimethanol] | 0.57
7 | O=C(NCC(CS(=O)(=O)O)c1ccc(Cl)cc1)c1ccc(-c2ccc(-c3nc4nc(O[C@@H]5CO[C@H]6[C@@H]5OC[C@H]6O)[nH]c4cc3Cl)cc2)cc1 (stereo partly drawn) [Compound 7, 3-(4′-(6-chloro-2-(((3R,3aR,6R,6aR)-6-hydroxyhexahydrofuro[3,2-b]furan-3-yl)oxy)-1H-imidazo[4,5-b]pyridin-5-yl)-[1,1′-biphenyl]-4-carboxamido)-2-(4-chlorophenyl)propane-1-sulfonic acid] | 1.22
8 | O=C(NCCCS(=O)(=O)O)c1ccc(-c2ccc(-c3nc4nc(O[C@@H]5CO[C@H]6[C@@H]5OC[C@H]6O)[nH]c4cc3Cl)cc2)cc1 [Compound 6, 3-(4′-(6-chloro-2-(((3R,3aR,6R,6aR)-6-hydroxyhexahydrofuro[3,2-b]furan-3-yl)oxy)-1H-imidazo[4,5-b]pyridin-5-yl)-[1,1′-biphenyl]-4-carboxamido)propane-1-sulfonic acid] | 0.62
9 | O=P(O)(O)c1ccc(-c2ccc(-c3nc4nc(O[C@@H]5CO[C@@H](CO)[C@@H]5O)[nH]c4cc3Cl)cc2)cc1 [Compound 68, (4′-(6-chloro-2-(((3R,4S,5S)-4-hydroxy-5-(hydroxymethyl)tetrahydrofuran-3-yl)oxy)-1H-imidazo[4,5-b]pyridin-5-yl)-[1,1′-biphenyl]-4-yl)phosphonic acid] | > 10000
10 | O=C(NCCCP(=O)(O)O)c1ccc(-c2ccc(-c3nc4nc(O[C@@H]5CO[C@H]6[C@@H]5OC[C@H]6O)[nH]c4cc3Cl)cc2)cc1 [Compound 14, (3-(4′-(6-chloro-2-(((3R,3aR,6R,6aR)-6-hydroxyhexahydrofuro[3,2-b]furan-3-yl)oxy)-1H-imidazo[4,5-b]pyridin-5-yl)-[1,1′-biphenyl]-4-carboxamido)propyl)phosphonic acid] | 0.5
11 | C[N+](C)(C)CCNC(=O)c1ccc(-c2ccc(-c3cc4nc(O[C@@H]5CO[C@H]6[C@@H]5OC[C@H]6O)[nH]c4cc3Cl)cc2)cc1 [Compound 29, 2-(4′-(6-chloro-2-(((3R,3aR,6R,6aR)-6-hydroxyhexahydrofuro[3,2-b]furan-3-yl)oxy)-1H-benzo [d]imidazol-5-yl)-[1,1′-biphenyl]-4-carboxamido)-N,N,N-trimethylethan-1-aminium bicarbonate] | 0.56
12 | O=C(CCCNCc1ccc(-c2ccc(-c3cc4nc(O[C@@H]5CO[C@H]6[C@@H]5OC[C@H]6O)[nH]c4cc3Cl)cc2)cc1)NCCO [Compound 37, 4-(((4′-(6-chloro-2-(((3R,3aR,6R,6aR)-6-hydroxyhexahydrofuro[3,2-b]furan-3-yl)oxy)-1H-benzo[d]imidazol-5-yl)-[1,1′-biphenyl]-4-yl)methyl)amino)-N-(2-hydroxyethyl)butanamide] | 3.6
13 | OCC1(CO)CN(Cc2ccc(-c3ccc(-c4nc5nc(O[C@@H]6CO[C@H]7[C@@H]6OC[C@H]7O)[nH]c5cc4Cl)cc3)cc2)C1 [Compound 52, (1-((4′-(6-chloro-2-(((3R,3aR,6R,6aR)-6-hydroxyhexahydrofuro[3,2-b]furan-3-yl)oxy)-1H-imidazo[4,5-b]pyridin-5-yl)-[1,1′-biphenyl]-4-yl)methyl)azetidine-3,3-diyl)dimethanol] | 0.81
14 | O[C@@H]1CCN(Cc2ccc(-c3ccc(-c4cc5nc(O[C@@H]6CO[C@H]7[C@@H]6OC[C@H]7O)[nH]c5cc4Cl)cc3)cc2)C1 [Compound 59, (R)-1-((4′-(6-chloro-2-(((3R,3aR,6R,6aR)-6-hydroxyhexahydrofuro[3,2-b]furan-3-yl)oxy)-1H-benzo[d]imidazol-5-yl)-[1,1′-biphenyl]-4-yl)methyl)pyrrolidin-3-ol] | 1.04
15 | CN(CCOCCO)S(=O)(=O)c1ccc(-c2ccc(-c3cc4nc(O[C@@H]5CO[C@H]6[C@@H]5OC[C@H]6O)[nH]c4cc3Cl)cc2)cc1 [Compound 72] | 1.38
16 | O=C(O)C(O)CNCc1ccc(-c2ccc(-c3nc4nc(O[C@@H]5CO[C@H]6[C@@H]5OC[C@H]6O)[nH]c4cc3Cl)cc2)cc1 (stereo partly drawn) [Compound 22, 3-(((4′-(6-chloro-2-(((3R,3aR,6R,6aR)-6-hydroxyhexahydrofuro[3,2-b]furan-3-yl)oxy)-1H-imidazo[4,5-b]pyridin-5-yl)-[1,1′-biphenyl]-4-yl)methyl)amino)-2-hydroxypropanoic acid] | 0.63
17 | CN(CCOCCO)Cc1ccc(-c2ccc(-c3cc4nc(O[C@@H]5CO[C@H]6[C@@H]5OC[C@H]6O)[nH]c4cc3Cl)cc2)cc1 [Compound 62, (3R,3aR,6R,6aR)-6-((6-chloro-5-(4′-(((2-(2-hydroxyethoxy)ethyl)(methyl)amino)methyl)-[1,1′-biphenyl]-4-yl)-1H-benzoldlimidazol-2-yl)oxy)hexahydrofuro[3,2-b]furan-3-ol] | 1.3
18 | OCC(CO)(CO)NCc1ccc(-c2ccc(-c3cc4nc(O[C@@H]5CO[C@H]6[C@@H]5OC[C@H]6O)[nH]c4cc3Cl)cc2)cc1 [Compound 36, 2-(((4′-(6-chloro-2-(((3R,3aR,6R,6aR)-6-hydroxyhexahydrofuro[3,2-b]furan-3-yl)oxy)-1H-benzo[d]imidazol-5-yl)-[1,1′-biphenyl]-4-yl)methyl)amino)-2-(hydroxymethyl)propane-1,3-diol] | 0.84
19 | OC[C@@H](O)[C@@H](O)[C@H](O)[C@@H](O)CNCc1ccc(-c2ccc(-c3cc4nc(O[C@@H]5CO[C@H]6[C@@H]5OC[C@H]6O)[nH]c4cc3Cl)cc2)cc1 [Compound 65, (2R,3R,4R,5S)-6-(((4′-(6-chloro-2-(((3R,3aR,6R,6aR)-6-hydroxyhexahydrofuro[3,2-b]furan-3-yl)oxy)-1H-benzo [d]imidazol-5-yl)-[1,1′-biphenyl]-4-yl)methyl)amino)hexane-1,2,3,4,5-pentaol] | 0.77
20 | OCC1(CO)CN(Cc2ccc(-c3ccc(-c4cc5nc(O[C@@H]6CO[C@H]7[C@@H]6OC[C@H]7O)[nH]c5cc4Cl)cc3)cc2)C1 [Compound 66, (1-((4′-(6-chloro-2-(((3R,3aR,6R,6aR)-6-hydroxyhexahydrofuro[3,2-b]furan-3-yl)oxy)-1H-benzo[d]imidazol-5-yl)-[1,1′-biphenyl]-4-yl)methyl)azetidine-3,3-diyl)dimethanol] | 0.8
21 | OCCN1CCN(Cc2ccc(-c3ccc(-c4nc5nc(O[C@@H]6CO[C@H]7[C@@H]6OC[C@H]7O)[nH]c5cc4Cl)cc3)cc2)CC1 [Compound 51, (3R,3aR,6R,6aR)-6-((6-chloro-5-(4′-((4-(2-hydroxyethyl)piperazin-1-yl)methyl)-[1,1′-biphenyl]-4-yl)-1H-imidazo[4,5-b]pyridin-2-yl)oxy)hexahydrofuro[3,2-b]furan-3-ol] | 0.72
22 | O=P(O)(O)c1ccc(-c2ccc(-c3nc4nc(O[C@H]5CO[C@H](CO)[C@H]5O)[nH]c4cc3Cl)cc2)cc1 [Compound 45, (4′-(6-chloro-2-(((3S,4R,5R)-4-hydroxy-5-(hydroxymethyl)tetrahydrofuran-3-yl)oxy)-1H-imidazo[4,5-b]pyridin-5-yl)-[1,1′-biphenyl]-4-yl)phosphonic acid] | > 10000
23 | OCC1CN(Cc2ccc(-c3ccc(-c4cc5nc(O[C@@H]6CO[C@H]7[C@@H]6OC[C@H]7O)[nH]c5cc4Cl)cc3)cc2)C1 [Compound 63, (3R,3aR,6R,6aR)-6-((6-chloro-5-(4′((3-(hydroxymethyl)azetidin-1-yl)methyl)-[1,1′-biphenyl]-4-yl)-1H-benzo[d]imidazol-2-yl)oxy)hexahydrofuro[3,2-b]furan-3-ol] | 1.09
